Test results: patent publication US10766914B2, “DNA alkylating agents” (OBI PHARMA, INC., priority 2015, dated 2020)

Columns and labels:
[1] = test system: A375 melanoma human tumor xenograft; assay: Example 4-C antitumor efficacy, ectopic A375 melanoma xenograft model; assay type: in vivo, female nude mice (nu/nu); settings: qd × 5 × 2, ip
[2] = test system: LIXC-004; assay: TH2870 sensitivity in liver cancer cells; assay type: cell-based, human; settings: AKR1C3 expression +++
[3] = test system: SNU-182; assay: TH2870 sensitivity in liver cancer cells; assay type: cell-based, human; settings: AKR1C3 expression /
[4] = test system: SNU-398; assay: TH2870 sensitivity in liver cancer cells; assay type: cell-based, human; settings: AKR1C3 expression /
[5] = test system: SNU-449; assay: TH2870 sensitivity in liver cancer cells; assay type: cell-based, human; settings: AKR1C3 expression ++++
[6] = test system: LIXC-002; assay: TH2870 sensitivity in liver cancer cells; assay type: cell-based, human; settings: AKR1C3 expression +++
[7] = in vivo; settings: mouse, ip, 20 mg/kg
Experimental: The pharmacokinetics of TH2870 were determined in Mouse/Nu-Foxn 1^nu NU/NU mice with A549 (non small cell lung), A375 (melanoma) and 786-O (renal cell) human tumor xenograft models following a single intraperitoneal dose of 20 mg/kg.

[8] = test system: A 549 non-small cell lung xenograft; assay: Example 4-B antitumor efficacy, ectopic A549 NSCLC xenograft model; assay type: in vivo, female nude mice (nu/nu); settings: 20 mg/kg ip QD × 5/wk × 2 wks
[9] = test system: 22RV1; assay: TH2870 sensitivity in prostate cancer cell lines; assay type: cell-based; settings: Homo sapiens
[10] = Homo sapiens, read-out: RelIC50

## CC(OP(=O)(N1CC1)N1CC1)c1ccc([N+](=O)[O-])c(Oc2cccc(C(=O)N(C)C)c2)c1 (stereo not drawn) [Compound 2870]
[1]; 20 mpk
  TGD 500: 24 days
  TGD 1000: >18 days
[1]; Mus musculus, A-375, 20 mpk, read-out: TGI
  inhibition in vivo at 20 mg/kg: 98%
[2]
  Max Inhibition %: 83.6%
[2]; [10]
  IC50: 0.0313 µM
[3]
  Max Inhibition %: 19.4%
[3]; [10]
  IC50: > 1 µM
[4]
  Max Inhibition %: 15.3%
[4]; [10]
  IC50: > 1 µM
[5]
  Max Inhibition %: 99.6%
[5]; [10]
  IC50: 0.04 µM
[6]
  Max Inhibition %: 99.1%
[6]; [10]
  IC50: 0.056 µM
[7]; Nu-Foxn1nu NU/NU
  Kp: 0.0079 to 0.326
  Tmax: 5 min
[7]; Nu-Foxn 1nu NU/NU, AUC
  AUC: 1.57 µg·h/mL
[7]; Nu-Foxn 1nu NU/NU, Cmax
  Cmax: 5.01 µg/mL
[7]; Nu-Foxn 1nu NU/NU, Half-Life
  half-life: 11.3 min
[8]
  TGD 500: >72 days
  TGI: 102.3%
[9]
  IC50: 0.0019 µM
